Source: ChEMBL document CHEMBL1201862, “PubChem BioAssay data set” (2004)
Activity calls are given as the source filed them.

What was measured:
[1] = molecular target: T1, Rac GTPase-activating protein 1 (Homo sapiens, UniProt Q9H0H5); assay: MgcRacGAP GTPase-activating activity inhibitors, confirmation, biochemical, ADP Hunter fluorescence, primary and confirmatory (AID 624330); type: functional
T1 sequence (Q9H0H5 whole entry): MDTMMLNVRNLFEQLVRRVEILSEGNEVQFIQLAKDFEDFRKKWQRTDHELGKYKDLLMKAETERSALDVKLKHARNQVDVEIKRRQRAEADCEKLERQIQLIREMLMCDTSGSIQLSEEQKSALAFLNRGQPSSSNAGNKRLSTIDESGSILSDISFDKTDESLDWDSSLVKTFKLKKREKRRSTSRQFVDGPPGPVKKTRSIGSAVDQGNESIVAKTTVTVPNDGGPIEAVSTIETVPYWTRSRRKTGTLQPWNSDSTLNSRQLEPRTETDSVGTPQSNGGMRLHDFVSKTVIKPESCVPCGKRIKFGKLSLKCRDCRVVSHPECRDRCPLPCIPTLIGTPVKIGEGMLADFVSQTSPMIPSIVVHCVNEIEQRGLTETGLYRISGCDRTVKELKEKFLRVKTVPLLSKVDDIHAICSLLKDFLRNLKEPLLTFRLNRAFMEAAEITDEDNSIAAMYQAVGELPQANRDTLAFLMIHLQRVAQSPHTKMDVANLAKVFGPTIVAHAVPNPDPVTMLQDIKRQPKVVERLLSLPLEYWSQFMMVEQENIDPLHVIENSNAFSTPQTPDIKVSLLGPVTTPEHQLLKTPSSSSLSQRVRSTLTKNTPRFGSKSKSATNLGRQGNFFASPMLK

[2] = HeLa cell cytotoxicity, dose response, cytotoxicity control for MgcRacGAP inhibitor project (AID 624300); type: functional
HEK293 [3] = assay: optical interference in Abeta FP readout, dose response, artefact control for IDE activator project, biochemical, fluorescence polarization (AID 588442); type: functional, cell-based; conditions: Homo sapiens
Insulin-degrading enzyme [4] = molecular target: T2, Insulin-degrading enzyme (Homo sapiens, UniProt P14735); assay: activators of endogenous IDE in HEK cells, dose response, cell-based, fluorescence polarization (AID 588439); type: functional
T2 sequence (P14735 whole entry): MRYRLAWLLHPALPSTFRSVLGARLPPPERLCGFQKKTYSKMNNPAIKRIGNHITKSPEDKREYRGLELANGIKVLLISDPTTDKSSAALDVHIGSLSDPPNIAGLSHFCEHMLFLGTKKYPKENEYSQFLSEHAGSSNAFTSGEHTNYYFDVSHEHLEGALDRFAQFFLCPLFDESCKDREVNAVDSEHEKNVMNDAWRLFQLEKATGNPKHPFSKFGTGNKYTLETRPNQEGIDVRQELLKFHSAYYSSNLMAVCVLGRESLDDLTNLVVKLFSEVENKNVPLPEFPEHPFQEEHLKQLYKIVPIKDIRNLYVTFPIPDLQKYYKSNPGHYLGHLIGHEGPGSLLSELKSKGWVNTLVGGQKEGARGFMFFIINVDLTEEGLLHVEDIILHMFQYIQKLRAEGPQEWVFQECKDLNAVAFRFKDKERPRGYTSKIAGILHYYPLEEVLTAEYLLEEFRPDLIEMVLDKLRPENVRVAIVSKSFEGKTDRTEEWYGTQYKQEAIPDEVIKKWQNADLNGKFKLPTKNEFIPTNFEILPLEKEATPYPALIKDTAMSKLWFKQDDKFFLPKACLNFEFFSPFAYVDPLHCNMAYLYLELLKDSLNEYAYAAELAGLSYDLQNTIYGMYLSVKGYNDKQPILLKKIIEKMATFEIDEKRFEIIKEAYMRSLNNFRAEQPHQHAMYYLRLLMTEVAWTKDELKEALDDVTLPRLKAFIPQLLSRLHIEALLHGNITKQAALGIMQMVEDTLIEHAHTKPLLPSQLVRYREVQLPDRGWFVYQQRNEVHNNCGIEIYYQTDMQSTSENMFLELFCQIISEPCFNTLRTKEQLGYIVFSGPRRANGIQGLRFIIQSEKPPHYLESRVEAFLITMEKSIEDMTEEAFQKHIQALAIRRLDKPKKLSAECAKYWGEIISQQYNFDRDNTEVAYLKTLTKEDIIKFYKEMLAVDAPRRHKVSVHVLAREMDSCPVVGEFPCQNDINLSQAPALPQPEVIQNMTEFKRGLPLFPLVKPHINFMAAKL

Insulin-degrading enzyme [5] = molecular target: T2, Insulin-degrading enzyme; assay: activators of recombinant IDE enzyme, dose response, counter-screen for IDE activator project, biochemical, fluorescence polarization (AID 588681)
HEK293 [6] = assay: HEK cell cytotoxicity by LDH release, dose response, cytotoxicity control for IDE activator project, fluorescence, HEK cells (AID 588440); type: functional, cell-based; conditions: Homo sapiens;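 note: cytotoxicity by LDH release measuring loss of membrane integrity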
[7] = molecular target: T3, Hepatocyte nuclear factor 4-alpha (Homo sapiens, UniProt P41235); type: functional, cell-based;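 note: biochemical luminescence-based dose-response counterscreen measuring inhibition of HNF4 dimerization, run alongside a screen for blockers of ABHD5–perilipin-5 interaction; split luciferase complementation of HNF4 fusion proteins in cell lysate measuring dimerization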
T3 sequence (P41235 whole entry): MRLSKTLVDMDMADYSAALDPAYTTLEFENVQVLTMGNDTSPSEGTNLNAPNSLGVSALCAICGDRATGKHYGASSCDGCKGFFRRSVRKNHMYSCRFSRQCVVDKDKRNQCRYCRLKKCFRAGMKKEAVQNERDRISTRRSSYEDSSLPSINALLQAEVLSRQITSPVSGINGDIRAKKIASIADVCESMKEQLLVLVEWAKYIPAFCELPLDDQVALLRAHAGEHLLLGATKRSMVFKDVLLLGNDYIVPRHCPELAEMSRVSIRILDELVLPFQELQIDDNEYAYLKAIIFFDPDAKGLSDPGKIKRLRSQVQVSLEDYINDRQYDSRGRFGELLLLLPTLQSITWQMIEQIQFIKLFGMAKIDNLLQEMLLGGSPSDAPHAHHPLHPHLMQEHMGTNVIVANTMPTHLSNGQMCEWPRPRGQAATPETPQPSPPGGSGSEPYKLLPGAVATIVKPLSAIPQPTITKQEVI

[8] = molecular target: T4, Heat shock factor protein 1 (Mus musculus, UniProt P38532); assay: HSF1 potentiators in luciferase reporter cells, confirmation, cell-based, NIH3T3, luminescence, dose retest (AID 435004); type: functional;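 note: stress induced by proteasome inhibitor MG132 added 30 min after compound; luciferase reporter driven by HSF1 response element in NIH3T3 cells; actives raise luminescence as potentiators of the MG132 stress response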
T4 sequence (P38532 whole entry): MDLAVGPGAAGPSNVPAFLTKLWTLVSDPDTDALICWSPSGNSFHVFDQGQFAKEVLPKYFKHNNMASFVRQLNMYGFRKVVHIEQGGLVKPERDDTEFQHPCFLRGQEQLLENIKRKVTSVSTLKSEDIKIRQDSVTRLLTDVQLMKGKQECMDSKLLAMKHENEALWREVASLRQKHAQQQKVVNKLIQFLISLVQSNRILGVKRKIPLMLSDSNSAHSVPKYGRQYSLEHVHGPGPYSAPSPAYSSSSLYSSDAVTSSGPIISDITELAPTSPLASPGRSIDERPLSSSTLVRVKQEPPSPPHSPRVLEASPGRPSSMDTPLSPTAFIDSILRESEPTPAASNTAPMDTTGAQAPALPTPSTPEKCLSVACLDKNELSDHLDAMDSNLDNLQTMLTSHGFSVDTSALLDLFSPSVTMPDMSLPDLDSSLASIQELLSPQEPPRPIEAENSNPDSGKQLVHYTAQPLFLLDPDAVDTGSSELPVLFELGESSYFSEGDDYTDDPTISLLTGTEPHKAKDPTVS

INS1 = assay: beta cell apoptosis inhibitors, cytokine rescue, dose response, luminescence, retest (AID 449756); type: functional, cell-based; conditions: Rattus norvegicus;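 note: cell death triggered by IL-1 beta plus TNF-alpha plus IFN-gamma mixture; protective hits raise ATP signal compared with cytokine alone wells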
[9] = control 3'UTR Renilla luciferase suppression, dose response, counter-screen for Shn3 inhibitor project, cell-based, Clone20-Shn3RL, cherry-picked (AID 624133); type: functional
[10] = HepG2 cell cytotoxicity, dose response, cytotoxicity control for Shn3 inhibitor project, CellTiter-Glo, cherry-picked (AID 624134); type: functional, cell-based
[11] = Shn3 3'UTR reporter inhibitors, dose response, cell-based, Clone20 osteoblasts, firefly luciferase, cherry-picked (AID 624132); type: functional;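 note: firefly luciferase luminescence from reporter carrying the Shn3 3'UTR in osteoblasts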
Melanocortin receptor 4 = Melanocortin receptor 4 (Homo sapiens, UniProt P32245); type: functional, cell-based;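 note: Cell-based assay with luminescence read-out, confirmatory dose-response testing for agonist activity of biased ligands at MC4R; human U2OS cells with tagged receptor and beta-arrestin; potency of agonists that increase receptor coupling to beta-arrestin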
Melanocortin receptor 4, sequence (P32245 whole entry): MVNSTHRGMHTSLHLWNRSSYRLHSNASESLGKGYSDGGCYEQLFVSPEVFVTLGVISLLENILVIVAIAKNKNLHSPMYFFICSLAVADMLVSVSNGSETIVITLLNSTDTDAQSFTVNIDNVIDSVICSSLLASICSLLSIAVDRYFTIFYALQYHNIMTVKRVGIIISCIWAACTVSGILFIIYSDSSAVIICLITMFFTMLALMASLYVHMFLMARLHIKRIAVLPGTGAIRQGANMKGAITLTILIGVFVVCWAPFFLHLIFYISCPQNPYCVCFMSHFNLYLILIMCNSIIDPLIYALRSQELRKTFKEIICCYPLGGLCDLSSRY

| SMILES | EC50 (HEK293 [3]) | EC50 (Insulin-degrading enzyme [4]) | EC50 (Insulin-degrading enzyme [5]) | IC50 (HEK293 [6]) | also measured |
| --- | --- | --- | --- | --- | --- |
| COc1cc(-c2nc3ccc(C)cn3c2Nc2ccc3c(c2)OCCO3)ccc1O | – | – | – | – | IC50 [1]: 34.2 µM (active); CC50 [2]: 100 µM (active) |
| COc1ccc(/C=C2\Oc3cc(OCC(=O)N4CCC(C(=O)O)CC4)ccc3C2=O)c(OC)c1OC | 24 µM (inactive) | 22 µM (inactive) | 33 µM (inactive) | > 89.2 µM (inactive) | – |
| CC(=O)Oc1c(Cl)cc(N(C(C)=O)S(=O)(=O)c2ccccc2)c2ccccc12 | – | – | – | – | IC50 [7]: 10.1 µM (inactive); EC50 [8]: > 260 µM (inactive); AC50 (INS1): 4.34 µM (active) |
| O=C(NS(=O)(=O)Nc1ccccc1)C1=C(N2CCCC2)COC1=O | > 55.9 µM (inactive) | > 54.7 µM (inactive) | > 54.7 µM (inactive) | > 89.2 µM (inactive) | – |
| CC1CN(S(=O)(=O)c2ccc(C(=O)Nc3nncs3)cc2)CC(C)O1 (stereo unspecified) | > 54.7 µM (inactive) | > 54.7 µM (inactive) | > 54.7 µM (inactive) | > 89.2 µM (inactive) | – |
| OC[C@@H]1CN(Cc2ccncc2)C[C@H](n2cnc3c(N4CCN(c5ccccc5)CC4)ncnc32)O1 | – | – | – | – | AC50 [9]: 5.72 µM (active); AC50 [10]: 3.81 µM (active); AC50 [11]: 2.38 µM (active) |
| CCOC(=O)C(/C=N/c1ccc2c(c1)nnn2-c1ccc(Cl)cc1)=C(\O)OCC | – | – | – | – | EC50 (Melanocortin receptor 4): > 89.2 µM (inactive) |
